One molecule from patent US9522163B2, “Methods of treating hepatitis” (priority 2002, dated 2016) can be followed below.

Series [1] has as its system mouse primary hepatocytes. As to the kind of experiment: TNF-α/ActD-induced cell death, crystal violet viability. The format is cell-based. How it is done: Mouse primary hepatocytes were harvested from C57BL/6J, mkk3^−/−, inos^−/− (in-house breeding colony), or hmox-1^−/− mice as described in Kim et al. (J. Biol. Chem. 272: 1402-1411 (1997)). Hepatocytes were used on days 1-3 following harvest.
(§1) Cells were treated with TNF-α (10 ng/ml) and actinomycin-D (Act-D; 200 ng/ml, Sigma Chemical Co. St. Louis, Mo.) to induce cell death.
Whether exogenous CO is protective against hepatocyte cell death in vitro was investigated. To generate the data presented in FIG. 2, mouse hepatocytes were pre-incubated with CO (250 ppm) for 1 hr (standard pre-treatment time for all experiments) prior to addition of TNF-α/Act-D (10 ng/200 ng/ml respectively). Cells were maintained in CO for the duration of the experiment. Twelve hours afterward, cell viability was measured as described in Kim et al. (J. Biol. Chem. 272: 1402-1411 (1997)). Adenoviral experiments involved incubating hepatocytes overnight with 10 pfu/cell of the adenovirus prior to addition of TNF-α/ActD, and then assaying for viability using crystal violet. The roles of signaling molecules guanylyl cyclase and p38 MAPK were also investigated in this model. To evaluate the role of cGMP and confirm the role of NF-κB, hepatocytes were treated separately with the soluble guanylate cyclase (sGC) inhibitor 1H-[1,2,4]Oxadiazolo[4,3-a]quinoxalin-1-one (ODQ; Calbiochem; 2-10 μM) or the NF-κB inhibitor BAY 11-7082, (10 μM). Cells were treated with the inhibitors for 1 hour prior to the 1 hour pretreatment with CO. TNF-α/ActD was then added and the cells tested for viability 12 hours later. NF-κB activation was critical to the protection elicited by CO while cGMP was not involved.
To generate the data presented in FIG. 9, mouse hepatocytes were isolated from inos^−/− or from wild type C57BL/6J mice, which were then pre-treated for 1 hr with L-NIO (1 mM) to inhibit iNOS prior to CO administration. Those groups exposed to CO received a one-hour pretreatment prior to addition of TNF-α/ActD and were then returned to CO exposure.
To generate the data presented in FIG. 19, mouse hepatocytes were isolated from HO-1 null mice (hmox-1^−/−) and wild type (C57BL/6J) littermates, pretreated for 1 hour with CO (250 ppm), and treated with TNF-α/ActD. Viability was assayed as described above.
To generate the data presented in FIG. 20, mouse hepatocytes were isolated from HO-1 null mice (hmox-1^−/−) and wild type (C57BL/6J) littermates, pretreated with the NO donor SNAP (500 μM), and then treated with TNF-α/ActD 1 hour later.

The subject of series [2] is primary rat hepatocytes. Nature of the series: TNF-α induced apoptosis in rat hepatocytes. The series is classed as cell-based. To be noted: exposure to CO. The protocol:
as §1
Thus, the effects of CO were independent of the cGMP/p38 MAPK pathway. In these experiments, hepatocytes were pre-treated with CO for one hour prior to addition of TNF-α/ActD to the medium.

Series [3] deals with NF-κB. Nature of the series: NF-κB luciferase reporter assay in hepatocytes. The series is classed as cell-based, mouse. To be noted: CO 250 ppm; reporter activity peaked one hour after placing cells in CO. How it is done:
In some experiments, gene transfer of an IκBα superrepressor (Hellerbrand et al., Hepatology 27:1285-1295 (1998)) or β-galactosidase using adenoviral vectors (10 pfu/cell) was performed 12 hours prior to TNF-α/ActD treatment. NF-κB activation was evaluated using a luciferase reporter assay as described in Chow et al. (J. Biol. Chem. 274: 10689-10692 (1999)). Briefly, hepatocytes were co-transfected with NF-κB reporter constructs (pGL3-kappaβ luciferase, 100 ng/well; and pIEP-Lac-z 0.5 μg/well) using Lipofectin™ (Invitrogen, Carlsbad, Calif.) as instructed by the manufacturer. Evaluation of iNOS expression was performed using a luciferase reporter assay as described in Lowenstein et al. (Proc. Natl. Acad. Sci. U.S.A 90: 9730-9734 (1993)). Briefly, hepatocytes were co-transfected with iNOS promoter reporter constructs (pXP2; 1 μg/well) and pIEP-LacZ (0.5 μg/well) as described above.
Hepatocytes were transfected with plasmids as described above and treated with various stimuli 24 hours after transfection. […] Results were corrected for transfection efficiency and protein concentration.
To generate the data presented in FIG. 4, evaluation of NF-κB activation was performed using a luciferase reporter assay as described in Chow et al. (J. Biol. Chem. 274: 10689-10692 (1999)). […]
A general note: In a reporter assay the amount or activity of a reporter protein is the signal.

Series [4] concerns iNOS. Nature of the series: Liver iNOS expression (immunoblot, immunostaining). The format is in vivo, mice. How it is done:
Western blot analysis was performed on primary hepatocytes in culture or from liver homogenates with antibodies to iNOS (Transduction Laboratories, Lexington, Ky.; 1:1000), HO-1 (Calbiochem; 1:2000), or β-actin (Sigma Chemical; 1:5000). Thirty μg protein in cell culture experiments or 100 μg protein from liver homogenates was loaded per well for SDS-PAGE.
For histology and immunohistochemistry, livers were fixed in 2% paraformaldehyde and then snap frozen in liquid nitrogen. Livers were then sectioned (7 microns thick) and stained with hematoxylin and eosin (H&E). Liver sections were also stained for TUNEL and activated caspase-3 using kits according to the manufacturer's instructions (Promega). Sections for iNOS immunocytochemistry were blocked with 5% goat serum containing 0.2% bovine serum albumin. Thereafter, sections were incubated for 1 hour at room temperature with anti-iNOS antibody (Transduction Laboratories; 1:300), then washed and probed with a secondary antibody conjugated to Alexa-488 (Molecular Probes, Eugene, Oreg.). Nuclei were stained with Hoechst dye. Images were acquired using an Olympus Provus microscope. Hepatocytes in culture were plated on gelatinized coverslips, stimulated as indicated, and then fixed in 2% paraformaldehyde containing 0.1% Triton X-100. […]

Entries after “also recorded” stand apart in the source; their conditions may differ.

In the case of `[C-]#[O+]` [CO, carbon monoxide], in series [1] (CO 250 ppm, 1 hour pretreatment), the “TNF-α/ActD-induced cell death, hmox-1−/− hepatocytes” value is recorded as “unable to protect”. For the same molecule, the “TNF-α/ActD-induced cell death, wild type hepatocytes” value in series [1] (CO 250 ppm, 1 hr pre-incubation and maintained, viability 12 hours) is “significantly less cell death; also recorded: significantly protected”. Besides, in series [1] (SB203580 3-30 μM, data not shown), the “Cell death in the presence of SB203580” value was “inhibited cell death”. In addition, in series [1] (data not shown), the “Cell death in hepatocytes from mkk3−/− mice” value is listed as “inhibited cell death” and the “Protection when CO treatment initiated after addition of TNF-α” value is “less protection was observed”. Further, the “Protection against cell death where iNOS expression was absent or inhibited” value in series [1] (inos−/− hepatocytes or wild type with L-NIO 1 mM, 12 hr) is “did not provide protection”. The TNF-α induced apoptosis entry in series [2] is “inhibited TNF-α induced apoptosis”. The “NF-κB activation (luciferase reporter, EMSA, immunostaining)” value in series [3] is recorded as “moderate increase”. Besides, the “Liver iNOS expression” value in series [4] (CO 250 ppm 1 hr prior to TNF-α/D-gal, livers six hours later) is on record as “markedly increased”. The “Liver iNOS expression, CO without TNF-α/D-gal” value in series [4] (immunostaining) is reported as “modest increase”.
